Assay results published in EP0725776B1, “3-ARYL-4-ALKYL AND 4,5-DIALKYL-4H-1,2,4-TRIAZOLES USEFUL AS MEMORY ENHANCERS” (MERRELL PHARMACEUTICALS INC., priority 1993, dated 1995).

Key:
RAT CORTICAL MEMBRANES = test: [3H]hemicholinium-3 binding in vitro in cortical membranes after in vivo administration; design: species or system Male Sprague-Dawley rats; conditions: n=10
Excerpt: The pharmacological properties of these compounds as enhancers of memory and cognition and their relative potencies may be measured through their effect on neuro-transmitters in the brain. Since drugs that block GABA inhibition in the cholinergic neurons of the basal forebrain nuclei will stimulate cholinergic firing, thus stimulating memory, the capacity of the drugs to enhance cognition can be assessed by measuring the increase in cholinergic firing rate. The increase in cholinergic firing rate is measured indirectly by measuring choline uptake or [^3H] hemicholinium-3 binding in brain cells taken from treated animals.
To test for [^3H] hemicholinium-3 binding in brain cells from the brain cortex, drugs were dissolved in saline by sonication. Male Sprague-Dawley rats were dosed i.p. and sacrificed by decapitation 60 min after injection. […] Binding was measured by incubating the tissue with varying concentrations of [^3H]hemicholinium-3 in an isotonic Tris buffer (pH 7.4) for 60 min at room temperature. […] After drying, the filters were placed in scintillation cocktail and radioactivity was determined using a Beckman scintillation counter. The values for the Kd and Bmax were determined by nonlinear curve-fitting and the average values for samples of 3 or more animals reported. […]

[1] = system: Diazepam-Induced Water Maze Learning Impairment; test: Reversal of diazepam-induced water maze learning impairment; assay type: in vivo, Male Sprague-Dawley rats; conditions: for Mean Latency ± S.E.M., Block 1 / Mean Latency ± S.E.M., Block 2 / Mean Latency ± S.E.M., Block 3: 8 rats
Excerpt: The activity of compounds of formula I in enhancing spacial learning ability and cognition can be tested by studying their ability to reverse a water maze learning impairment induced by the benzodiazepine, diazepam (R. G. M. Morris, Learning and Motivation 12, 239-260 (1982); M. P. Arolfo, and J. D. Brioni, Behavioral and Neural Biology 55, 131-6 (1991); R. K. McNamara and R. W. Skelton, Pharmacology, Biochemistry & Behavior 38, 651-8 (1991); R. K. McNamara and R. W. Skelton, Psychopharmacology 107, 347-51 (1992)).
Male Sprague-Dawley rats are trained in a 120-cm diameter water-filled tank to locate a hidden platform submerged just below the surface of the water. The location of the platform remained constant, but for each trial the animal was required to swim from one of three different starting locations around the edge of the tank. There were no proximal cues in the tank, so the animal had to use a spatial mapping strategy using the distal cues around the room to navigate to the hidden platform. The animals were given 9 successive training trials during the single training day. […] After the animal found or was placed on the platform, it was allowed to stay there for 30 seconds. The next trial commenced immediately following the 30 second stay on the platform. Latency to locate the platform was recorded for each trial using a computerized video tracking system for automated acquisition of the data.
Separate treatment groups of four animals each were run in each experiment. The results of two experiments were combined so that 8 rats were tested in each treatment group. The vehicle-vehicle group received vehicle (distilled water plus Tween) i.p. 60 minutes prior to the first trial and vehicle i.p. 20 minutes prior to the first trial. The vehicle-diazepam group received vehicle i.p. 60 minutes prior to the first trial and 2.5 mg/kg diazepam i.p. 20 minutes prior to the first trial. Two groups of animals were treated with 3-(3-fluorophenyl)-4-methyl-4H-1,2,4-triazole, a compound of formula I, prior to treatment with diazepam. One group received 20 mg/kg of 3-(3-fluorophenyl)-4-methyl-4H-1,2,4-triazole i.p. 60 minutes prior to the first trial and 2.5 mg/kg diazepam i.p. 20 minutes prior to the first trial, while the second group received 40 mg/kg of 3-(3-fluorophenyl)-4-methyl-4H-1,2,4-triazole i.p. 60 minutes prior to the first trial and 2.5 mg/kg diazepam i.p. 20 minutes prior to the first trial.
The latency scores for each animal were averaged into three blocks of three trials each (one trial from each starting location). A one-way ANOVA comparing the treatment groups was computed on the scores for each trial block. If the overall ANOVA was statistically significant, comparisons between individual treatment groups were made with Fisher's PLSD test.

[2] = reported by M. Y. Mhasalkar, et al., J. Med. Chem 14(3) 260-262, (1971); cited from earlier work
[3] = 20 mg/kg i.p. 60 min prior to first trial, diazepam 2.5 mg/kg i.p. 20 min prior
[4] = 40 mg/kg i.p. 60 min prior to first trial, diazepam 2.5 mg/kg i.p. 20 min prior
[5] = vehicle i.p. 60 min prior, diazepam alone 2.5 mg/kg i.p. 20 min prior to first trial

What does the source list for `Cn1cnnc1-c1cccc(F)c1` [3-(3-Fluorophenyl)-4-methyl-4H-1,2,4-triazole]?
Bmax ± SEM (RAT CORTICAL MEMBRANES; [3H]hemicholinium-3 binding, rat cortex, dosed i.p. (1/mg/kg), sacrificed 60 min after injection): 20.4±2.48 fmol/mg Protein; % Increase in Bmax (RAT CORTICAL MEMBRANES; over saline control, (1/mg/kg) i.p., 60 min): 45%; Mean Latency ± S.E.M., Block 1 [1, 3]: 44.68 ± 2.56 s; Mean Latency ± S.E.M., Block 2 [1, 3]: 37.67 ± 6.01 s; Mean Latency ± S.E.M., Block 3 [1, 3]: 35.21 ± 6.00 s; Effect on diazepam-induced impairment ([1]; 20 mg/kg i.p. plus diazepam 2.5 mg/kg, result in words): attenuated diazepam-induced impairment; Mean Latency ± S.E.M., Block 1 [1, 4]: 58.19 ± 1.01 s; Mean Latency ± S.E.M., Block 2 [1, 4]: 52.83 ± 3.85 s; Mean Latency ± S.E.M., Block 3 [1, 4]: 53.59 ± 4.31 s; Effect on diazepam-induced impairment ([1]; 40 mg/kg i.p. plus diazepam 2.5 mg/kg, result in words): did not affect the diazepam-induced impairment

With `Cn1cnnc1-c1ccc(Cl)cc1` [3-(4-Chlorophenyl)-4-methyl-4H-1,2,4-triazole] as the compound, how does the hypoglycemic activity [2] read?
The hypoglycemic activity was “hypoglycemic activity”.

What does the source list for `CN1C(=O)CN=C(c2ccccc2)c2cc(Cl)ccc21` [diazepam, reference compound]?
Effect on water maze learning ([1]; diazepam 2.5 mg/kg i.p. versus vehicle-vehicle group, p < .05 on all three blocks, result in words): significantly impaired water maze learning; Mean Latency ± S.E.M., Block 1 [1, 5]: 57.70 ± 2.30 s; Mean Latency ± S.E.M., Block 2 [1, 5]: 49.67 ± 6.06 s; Mean Latency ± S.E.M., Block 3 [1, 5]: 55.76 ± 4.24 s
